The results in this text go back to US20260109725A1, “MACROLIDE SENOLYTIC COMPOUNDS” (LUNELLA BIOTECH, INC., priority 2022, published 2026).

Assay type in all cases: cell-based, human
Test [1] deals with MRC-5 cells treated with BrdU (senescent fibroblasts). Description: SRB assay, BrdU-treated (senescent) MRC-5 cells. The method, then: (§1) For example, in one assay bromodeoxyuridine (5-bromo-2′-deoxyuridine), also known as BrdU, was used to induce senescence in a cell population. BrdU is an analog of the nucleoside thymidine commonly used to identify proliferating cells. BrdU induces controlled DNA damage, and drives cells towards senescence with high efficiency. In the BrdU assay, normal fibroblasts are subjected to prolonged culture (8-days) in the presence of BrdU at 100 μM to induce controlled DNA-damage and senescence. […] Senolytic activity was assessed using the sulforhodamine B assay, also known in the art as the SRB assay. This assay measures the amount of protein remaining attached to the tissue-culture dishes, and is a surrogate marker for cell viability.
(§2) FIG. 1 compares SRB assay results for different concentrations of Azithromycin (100 µM and 50 μM) and Compound [I] (100 μM and 50 μM) of the present approach, on both control MRC-5 cells and MRC-5 cells treated with BrdU. […] (labelled as “Azi-Gal” in FIG. 1) for another 5 days. After that, the SRB assay was performed to determine the effects of the drug on cell viability, using normal MRC-5 cells as the control. […] However, at 50 μM Azithromycin had no effect on either the control cells or senescent cells.
(§3) BrdU Assay: Cells were plated into 24-well plates. Next day, half of the plate was treated with 100 μM of BrdU while control wells were treated with vehicle only (DMSO) and incubated for 8 days at 37° C. in a 5% CO2 humidified atmosphere. After 8 days of BrdU treatment cells were treated with various test compounds or drugs (e.g., azithromycin, roxithromycin, telithromycin, erythromycin, etc.) for another 3-5 days. BrdU or vehicle treatments were continued during the drug treatments as well.
(§4) Sulphorhodamine B assay: After the incubation of the plates cell viability was measured by Sulphorhodamine B assay (SRB). The assay is based on the measurement of cellular protein contents. Cells were fixed with 10% Trichloroacetic acid (TCA) for 1 hour at […], and were dried overnight at room temperature. Then, plates were incubated with SRB for 30 min, washed twice with 1% acetic acid and air dried for at least 1 h. Finally, the protein-bound dye was dissolved in a 10 mM Tris, pH 8.8, solution and read using a plate reader at 540-nm.
Background: The SRB assay estimates cell density from bound dye.

For a further test, the system named is MCF-7 cells. Put plainly: mammosphere formation assay (3D anchorage independent growth). The method, then: The compounds disclosed herein may also be used as therapeutic agent to selectively eradicate CSCs for treating and/or preventing tumor recurrence and/or metastasis. […] This assay measures the amount of residual protein that adheres to tissue culture dishes and is a surrogate marker of cell viability.
3D Anchorage Independent Growth Assay: This assay is also referred to as the mammosphere formation assay. A single-cell suspension was prepared using enzymatic, and manual disaggregation (25-g needle). Then, cells were plated at a density of 500 cells/cm^2 in mammosphere medium (DMEM-F12+1X B-27 Plus Supplement+20 ng/ml EGF+Pen/Strep) under non-adherent conditions, in culture dishes pre-coated with (2-hydroxyethylmethacrylate) (poly-HEMA, Sigma Aldrich Inc.), called “mammosphere plates.” Cells were grown for 5 days and maintained in a humidified incubator at 37° C. After 5 days of culture, 3D-mammospheres >50 μm were counted using an eye piece (“graticule”), and the percentage of cells plated which formed spheres was calculated and is referred to as percent mammosphere formation, and was normalized to one (1=100% MFE). 3D mammosphere formation efficiency (MFE) was analyzed in both the ATP-low and ATP-high sub-populations of cells. All 3D mammosphere experiments were performed in triplicate, at least 3 times independently.

The next test deals with normal MRC-5 cells. Put plainly: Images of MRC-5 fibroblasts without BrdU pre-treatment. Conditions: 50 μM. The procedure:
(§5) FIGS. 3A and 3B are images of MRC-5 fibroblasts without and with BrdU pre-treatment, respectively, treated with Compound [I] at a concentration of 50 μM. […] The scale bar in the upper-right of FIGS. 3B and 3C represents 20 μm.
as §3

The test system of test [2] is control MRC-5 cells (normal lung fibroblasts). Description: SRB assay, control (normal) MRC-5 cells. Conditions: 10 μM. The method, then: as §1, §2, §3, §4
For a further test, the system named is control MRC-5 cells. Put plainly: xCELLigence assay, control MRC-5 cells. Conditions: 50 μM, 5 days. The source says:
(§6) Senescent cells undergo the so-called senescence-associated secretory phenotype (SASP), which involves dramatic increases in the synthesis and secretion of proteins. The xCELLigence assay system was used to assess whether protein measurement assays under-estimate the senolytic activity of tested compounds. […] The real-time xCELLigence assay system thus compliments the more static SRB assay, and offers a more direct visualization of the potential senolytic effects of compounds during drug screening.
(§7) The xCELLigence assay was used to confirm senolytic activity for Compound [I]. MRC-5 fibroblasts were used for the assay. […] The data is expressed as the final cell index, the average±the standard error of mean, for the control cells, control cells treated with Compound [I], BrdU-treated control cells, and BrdU-treated fibroblasts subjected to Compound [I] at 50 μM, respectively. The senescent MRC-5 cells were pretreated with BrdU for 8 days to induce senescence, before exposure to Compound [I] for another 5 days. Compared to the control, Compound [I] treatment had no effect on the viability of normal fibroblasts, but killed over 90% of the BrdU-treated fibroblasts.
(§8) xCELLigence Assay System: xCELLigence RTCA System (ACEA Biosciences Inc.). […] This approach allows the quantification of the onset and kinetics of the cellular response. […]

The next test has as its system senescent MRC-5 cells. Put plainly: Images of MRC-5 fibroblasts with BrdU pre-treatment. Conditions: 50 μM. The method, then: as §5, §3
Test [3] relates to MRC-5 cells treated with BrdU. Description: xCELLigence assay, BrdU-treated MRC-5 cells. Conditions: 50 μM, 5 days after 8 days BrdU, compared to the control.
Excerpt: as §6, §7, §8

As for `CC[C@H]1OC(=O)[C@H](C)[C@@H](O[C@@H]2C[C@@](C)(OC)[C@@H](O)[C@H](C)O2)[C@H](C)[C@@H](O[C@@H]2O[C@H](C)C[C@H](N(C)C)[C@H]2OC(=O)OCc2ccc(O[C@@H]3O[C@H](COC(C)=O)[C@H](OC(C)=O)[C@H](OC(C)=O)[C@H]3OC(C)=O)c([N+](=O)[O-])c2)[C@](C)(O)C[C@@H](C)CN(C)[C@H](C)[C@@H](O)[C@]1(C)O` [Compound [I], [(2R,3S,4S,5R,6S)-3,4,5-triacetoxy-6-[4-[[(2S,3R,4S,6R)-4-(dimethylamino)-2-[[(2R,3S,4R,5R,8R,10R,11R,12S,13S,14R)-2-ethyl-3,4,10-trihydroxy-13-[(2S,4R,5S,6S)-5-hydroxy-4-methoxy-4,6-dimethyl-tetrahydropyran-2-yl]oxy-3,5,6,8,10,12,14-heptamethyl-15-oxo-1-oxa-6-azacyclopentadec-11-yl]oxy]-6-methyl-tetrahydropyran-3-yl]oxycarbonyloxymethyl]-2-nitro-phenoxy]tetrahydropyran-2-yl]methyl acetate], the “effect on senescent cells (SRB)” value in test [1] (10 μM) is “effective”. For the same molecule, in test [1] (50 μM, senescent vs control MRC-5), the “selectivity towards senescent MRC-5 fibroblasts (SRB)” value is on record as “exceptional selectivity”. The “inhibition of mammosphere formation” value in the test with MCF-7 cells (100 μM) is recorded as “nearly complete inhibition”. This molecule displayed an IC50 with MCF-7 cells (Homo sapiens, MCF7) of 60 µM. The “effect on normal MRC-5 cells (images)” value in the test on normal MRC-5 cells is recorded as “little effect”. For the same molecule, the “effect on control cells (SRB)” value in test [2] was “effective”. For the same molecule, the “effect on viability of normal fibroblasts (xCELLigence final cell index)” value in the test with control MRC-5 cells is “no effect”. Moreover, the “effect on senescent MRC-5 cells (images)” value with senescent MRC-5 cells is listed as “induced cell death”. Besides, in test [3], the “BrdU-treated fibroblasts killed (xCELLigence final cell index)” value is “over 90%”.

As a reminder, the IC50 is the concentration that inhibits the measured activity by half. High values mean weaker potency in that assay, low ones greater potency in that assay.
